We go through 3 molecules from patent US5661154A (priority 1988, dated 1997).

“Also recorded” adds a separate entry of the source. Like-named read-outs stand apart in the source and are kept apart here.

For data set [1], the system named is serum uric acid. The experiment in a line: Uric acid decreasing effect in test persons with hyperuricaemia. In kind it is in vivo. As to conditions: for decrease of the serum uric acid level: daily 384 mg sodium oxypurinol or 300 mg allopurinol, two weeks; for decrease of the serum uric acid level (in words): sodium oxypurinol compared with allopurinol.
Data set [2] deals with xanthine oxidase. As to conditions: cited from earlier work; for inhibiting the enzyme xanthine oxidase: allopurinol and oxypurinol compared with each other.
The conditions of data set [3]: portion of allopurinol; cited from earlier work.
For data set [4] the following is noted: cited from earlier work.
Data set [5] in a line: pH value of aqueous solution. In kind it is physicochemical. As to conditions: 5% aqueous solution. The text has this: However, from the examples it can be seen that not the pure sodium salt was used, but a mixture of salt and excess sodium hydroxide solution. This follows especially from the pH values of about 1 to 2% solutions, being 11.5 or 12.0. The sodium salt having been prepared by the applicant in pure and crystalline form for the first time has a pH value of 9.7 in 5% aqueous solution, and crystallizes as the monohydrate.
(§1) Said sodium salt is monosodium oxypurinol monohydrate. The salt is white and crystallizes in fine needles.

Data set [6] can be described thus: Solubility. In kind it is physicochemical. As to conditions: methanol/water 3:1, organic solvent or mixture; 25° C.; read-out: solubility in methanol/water (3:1 by vol.).
From the text: as §1

A short description of data set [7]: Stability of the salt on air and on drying. In kind it is physicochemical. As to the method: The salt is stable on air and endures drying temperatures up to about 70° C.

Turning to `Oc1ncnc2[nH]ncc12` [allopurinol], in data set [1], the “decrease of the serum uric acid level” value was 2.0 mg/100 ml and the “decrease of the serum uric acid level (in words)” value is “comparable; also recorded: approximately equal decrease”. Further, the “inhibiting the enzyme xanthine oxidase” value in data set [2] is on record as “equally strongly”. In addition, in data set [2] (therapeutic effect only after metabolizing to oxypurinol), the “activity of allopurinol itself” value is “little activity itself”. Also, the excreted via kidneys in data set [3] is listed as 3 to 10%. Also, in data set [4] (in vivo), the “resorbable upon peroral application” value is “well resorbable”.
With `Oc1nc(O)c2cn[nH]c2n1` [oxypurinol, 4,6-dihydroxypyrazolo[3,4-d]pyrimidine], the “inhibiting the enzyme xanthine oxidase” value in data set [2] was “equally strongly”. Moreover, the “resorbable upon peroral application” value in data set [4] (from galenic formulations, per os) was “no success was achieved in finding a galenic formulation being sufficiently resorbable per os”.
`Oc1nc(O)c2cn[nH]c2n1` [sodium oxypurinol, monosodium oxypurinol monohydrate] returned a pH value in data set [5] of 9.7. Further, the solubility in data set [6] is around 2000 µg/mL. In addition, the “endures drying temperatures up to” value in data set [7] (drying) was “about 70 °C”. In addition, the stability on air result in data set [7] (on air) is “stable on air”. For the same molecule, the “decrease of the serum uric acid level” value in data set [1] turned out to be 2.1 mg/100 ml. Also, the “decrease of the serum uric acid level (in words)” value in data set [1] (monohydrate) is recorded as “comparable; also recorded: approximately equal decrease”.
